Molecular target: Thymidine kinase (Herpes simplex virus 1)
Assay: Binding affinity was determined against Herpes simplex virus (HSV) -1 thymidine kinase in vero cell monolayer culture

Nc1nc2c(ncn2CC=C(CO)CO)c(=O)[nH]1
Ki: 25 µM

From BindingDB's records for doi:10.1021/jm00388a036 (1987)
